Experimental data as given in US11896704B2, “Compounds useful for the treatment and/or care of the skin, hair, nails and/or mucous membranes” (LUBRIZOL ADVANCED MATERIALS, INC., priority 2017, dated 2024).

How the values were obtained:
[1] = tested on: mitochondrial complex II (succinate-coenzyme Q reductase); assay: Mitochondrial complex II activity in human dermal fibroblasts, colorimetric assay; type: cell-based; details: HDFa, 24 hours
Experimental: Measurement of Increase in Mitochondrial Complex II Activity Using an Assay Based on Colorimetric Detection.
Human Dermal Fibroblasts from adult (HDFa, Life Technologies) are seeded at a density of 750.000 cells/75 cm^2 flask (one flask per condition) in culture medium M106 with Low Serum Growth Supplement (Life Technologies). Cells are grown during 7 days at 37° C. in 5% CO2 humidified air. […]. Non treated cells incubated in culture medium alone are used as basal conditions. After 24 hours of treatment, cells are detached using trypsin and resuspended in 40 ul of Phosphate buffer saline (Sigma). Total protein concentration is measured with a Pierce BCA Protein Assay Kit (BCA Assay, Thermo Scientific) following manufacturer's protocol to adjust the final protein concentration between 2500-3000 ug/ml. Briefly, standards and samples are dispensed and Working Reagent is added to the samples. After 30 minutes of incubation at 37° C., absorbance is measured with a microplate reader (Clariostar®, BMG) at 562 nm.
Mitochondrial complex II activity is measured with Complex II enzyme activity microplate assay Kit (Abcam) according to the manufacture's protocol. This assay follows the production of ubiquinol (QH2, produced by mitochondrial complex II) coupled to the reduction of a colorimetric dye (DCPIP, 2,6-diclorophenolindophenol). In brief, 50 ul of each sample (adjusted to 2500-3000 ug/ml of total protein amount) is incubated for 2 hours. After that, wells are washed several times and incubated with Activity solution provided with the kit (composed by ubiquinone, succinate and DCPIP). For the determination of mitochondrial complex II activity, colorimetric reduction of DCPIP at Optical Density (OD) 600 nm in a kinetic reaction along 30 minutes is measured with a microplate reader (Clariostar®, BMG). Results are calculated as the rate of decrease in absorbance at OD 600 nm between two points in the linear zone over time.
[…]. These values represent the mean for at least three independent assays.

[2] = tested on: Phenion Full-Thickness Skin models; assay: Hydration level in synchronized human full-thickness skin models; type: cell-based; details: 0.5 mg/ml, 48 hours of treatment, one assay
Experimental: Measurement of Hydration Level in Synchronized Human Full-Thickness Skin Models.
Immediately after arrival, the Phenion® Full-Thickness Skin models (HENKEL) are placed in Petri dishes (5 skin models per condition) according to the supplier's instructions in ALI medium (HENKEL). After 72 hours incubation at 37° C., 5% CO2, a synchronization protocol is initialized. For this purpose, skin models are subjected to two alternative cycles of 12 hours each at 37° C. in 5% CO2 humidified air (day mode) and 33° C. in 5% CO2 humidified air (night mode). At the beginning of the synchronization, pre-treatment measurement of hydration at 7:30 hours is tested in skin models. Hydration measurements of the epidermis are performed with DPM 9003 BT™ (NOVA® Technology Corporation) and with MoistureMeter SC™ (Delphin). For pre-treatment measurements, skin model's surface is washed with 5 ml of Phosphate Buffered Saline (PBS, Sigma). […]
The results in Table 13 show the mean of the percentage of hydration levels at 7:30 hours after 48 hours of treatment relative to hydration levels in basal conditions. […] These values are calculated for one assay. […]
The results in Table 14 represent the mean of the percentage of hydration levels at 7:30 hours after 48 hours of treatment relative to hydration levels in basal conditions at the same time. […] These values are calculated for one assay. […]

[3] = tested on: PER3 (period circadian clock 3); assay: PER genes expression in young and old HEKa, real time PCR: PER3; type: cell-based, Human; details: 0.5 mg/ml
Experimental: In Vitro Study of PER Genes Expression in Young and Old Human Epidermal Keratinocytes (HEKa) Using Real Time PCR Arrays. Human Epidermal Keratinocytes, (HEKa) cells (Life Technologies) from donor one and donor two are seeded at 3.0×10^5 cells/well in 12-well plates and incubated in culture medium, Keratinocyte growth medium supplemented with Mix C39016-CaCl2 solution (Promocell). For synchronization, cells were subjected to two alternative cycles of 12 hours each at 37° C. in 5% CO2 humidified air (day mode) and 33° C. in 5% CO2 humidified air (night mode). 12 hours after starting synchronization, cells are incubated with the synthetic peptide […] (PEP-1, H-[SEQ ID. NO. 2]-NH2) at 0.5 mg/ml in culture medium. Cells treated with medium alone are used as basal condition. At the end of synchronization, cell lysates are collected at 7:30 hour (early morning point). […] After RNA elution, quantification and analysis of purity of RNA samples are performed with a nanodrop (Thermo). […] SYBR Green binds to double-stranded DNA molecules and emits fluorescence which is quantified, and the fluorescence intensity is proportional to the amount of the product in the PCR reaction. […] Fold change relative to the expression of the sample genes and reference genes is calculated using normalized expression (ΔΔ(Ct)) method using CFX Manager SoftwareTM (BioRad).

H-Phe-Trp-Met-Lys-Arg-Lys-Arg-Val-Pro-NH2 (H-FWMKRKRVP-NH2) [PEP-1]
Percentage of mitochondrial complex II activity relative to basal condition (%) ([1]; 0.1 mg/mL): 166.00%
Percentage of mitochondrial complex II activity relative to basal condition (%) ([1]; 0.5 mg/mL): 142.12%
Percentage of mitochondrial complex II activity relative to basal condition (%) ([1]; 1 mg/mL): 133.00%
Hydration level (%) ([2]; 7:30 h, relative to basal conditions 7:30 h, MoistureMeter SC): 110.1%
Hydration level at 7:30 hours (%) ([2]; relative to basal conditions, DPM9003 BT): 131.6%
Fold induction at 7:30 h respect to Basal condition (%) ([3]; PER3, HEKa from donor one): 182.5%
Fold induction at 7:30 h respect to Basal condition (%) ([3]; PER3, HEKa from donor two): 249.0%
